Like-named read-outs stand apart in the source and are kept apart here.
Assays:
[1] = biological target: T1, γ-secretase (Homo sapiens, UniProt P49768); assay: Inhibitory effect on γ-secretase: ELISA of human β-amyloid in the cell medium of APP751-expressing HEK293 cells; assay type: cell-based; conditions: for γ-Secretase effect: concentration 2 µM, compared with DAPT; for γ-Secretase effect / quantity of amyloid β: figure 3; for quantity of amyloid β: concentration 0,02 µM; for concentrations at which the substances have γ-secretase activity / decrease of β-amyloid quantity in the cell medium: tested at 0,02, 0,2 and 2 µM, Figure 2
T1 construct: endogenous in cells; host or cells: HEK293 cells stably expressing APP751
Experimental: To a solution of norgalanthamine hydrochloride (0.42 g 1.3560 mmol) in DMF under cooling Et3N (0.19 ml 1.3520 mmol) and N-(3,4-dichlorophenyl)-alanyl-valine (0.50 g 1.5009 mmol) and N-cyclohexyl-N-[β-(N-methylformolino)-ethyl-] carbodiimide (0.64 g 1.5109 mmol) was added. The reaction mixture was stirred for 24 hours at room temperature and the end of reaction was monitored in a system of n-BuOH:AcOH:H2O= 3:1:1 To the reaction mixture 5 % NaHCO3 was add, followed by precipitate formation. The precipitate was washed by suspending in 5 % NaHCO3 and H2O. […] 137-141 °C, yield 37 %, chromatographically pure in a system of CHCl3:MeOH=9:1 and n-BuOH:AcOH:H2O= 3:1:1. IR [cm^-1]: 3384, 3062, 3028, 2930, 1640, 1599, 1280, 1240, 1059, 753, 701. HPLC: Rt= 2.58 and 2.76 min for S and R isomers. 1H NMR (CDCl3, ppm ) δ: 7.10-7.30 (2H, NH), 7.0-6.20 (10H, 5H Ph + H9', H10'+ 3H PhCl), 6.0 (m, 2H, H4', H5'), 4.7-4.4 (m, 4H, CH2NCH2), 4.5 (m, 1H, H1'), 4.14 (m, 1H, H3'), 3.85 (s, 3H, O-CH3), 3.90 (m, 1H, CHCH2Ph), 3.75 (q, 1H, CHCH3), 3.20 (m, 1H, CHCH2Ph), 2.70 (d, J=15.9 Hz, 1H, H2a'), 2.02 (d, J=15.9 Hz, 1H, H2b'), 1.90 (m, CH2), 1.30 (d, , 3H, CHCH3). Elemental analysis - nitrogen determination: C34H36N3Cl2O5, M.M= 636.54 theoretical 6.60 % N, calculated 6.62 % N. Mass spectrometry: C34H36N3Cl2O5, M.M= 636.20 found [M+H]^+=636.55. […] 133-138 °C, yield 35 %, chromatographically pure in a system of CHCl3:MeOH=9:1 and n-BuOH:AcOH:H2O= 3:1:1. IR [cm^-1]: 3338, 2963, 2931, 2874, 1656, 1630, 1599, 1382, 1373, 1279, 1214, 1059. HPLC: Rt= 2.35 and 2.53 min for S and R isomers. 1H NMR (CDCl3, ppm) δ: 7.10-7.30 (2H, NH), 7.0-6.20 (5H, H9', H10', 3H PhCl), 5.90 (m, 2H, H4', H5'), 4.7-4.4 (m, 4H, CH2NCH2), 4.5 (m, 1H, H1'), 4.15 (m, 1H, H3'), 3.86 (s, 3H, O-CH3), 3.85 (m, 1H, H2), 3.75 (q, 1H, CHCH3), 3.20 (m, 1H), 2.70 (d, J=15.9 Hz, 1H, H2a'), 2.40 (m, 1H, CH(CH3)2), 2.02 (d, J=15.9 Hz, 1H, H2b'), 1.90 (m, CH2), 1.30 (d, 3H, CHCH3), 0.80 (d, 6H, 2 x CH3). Elemental analysis - nitrogen determination: C29H33N3Cl2O5, M.M= 588.41 calculated 7.14 % N, found 6.98 % N. Mass spectrometry: C29H33N3Cl2O5, M.M= 587.20 found [M+H]^+=588.45. Example 14 The study of inhibitory effect on γ-secretase of the compounds under the inventions took place on expressing APP751 HEK293 cells using the following methods: (1) cell cultivation of expressing APP751 HEK293 cells, and (2) ELISA (solid-phase sandwich enzyme-linked immunosorbent assay) of human β-amyloid protein. HEK293 cells were cultivated in Dulbecco's modified Eaglr's medium (Applichem, Germany) with added 10% fetal calf serum (Biowhittaker, USA) and 200 U/ml Penicillin and […] Streptomycin (Applichem, Germany) at 37°C and 5% CO2. ELISA kits of human β-amyloid are intended for in vitro quantitative determination of a native or recombinant β-amyloid in serum, supernatant of cell cultures or other biological samples. In short, a monoclonal antibody specific for the amino end of β-amyloid was immobilized for a 96-pit plate. β-amyloid antigen from the standards or from the samples was connected with this first antibody. Then a second antibody was placed for detection of the specific β-amyloid 1 - 42. An anti-rabbit antibody IgG-HRP completed the sandwich. The reaction was visualized by means of 3,3",5,5"-tetramethylbenzidine (TMB) substrate, following by a stop solution. Yellow colour intensity was in direct proportion to the concentration of β-amyloid in the original sample. The sensitivity of these ELISA was < 10 pg/ml β-amyloid. ELISA method was used to study the inhibitory effect on γ-secretase of the compounds obtained according to the invention on expressing APP751 HEK293 cells. The following abbreviations were used: • 1. 6-O-N-[N- (3,4-dichlorophenyl)-D,L-alanyl]-glycil-galanthamine - AG-GAL • 2. […] 6-O-N-[N- (3,4-dichlorophenyl)-D,L-alanyl]-L-leucil-glycil-galanthamine - ALG-GAL • 4. 6-O-N-[N- (3,4-dichlorophenyl)-D,L-alanyl]-L-valyl-glycil-galanthamine - AVG-GAL • 5. N-(3,4-dichlorophenyl)-D,L-alanyl-L-phenylalanine - AF • 6. […]

[2] = biological target: T2, butyrylcholinesterase (Homo sapiens, UniProt P06276); assay: biochemical
T2 construct: purchased Sigma
Experimental: In studying the inhibitory effect of the compounds according to the invention, a modified Elman's method was used. Butyrylcholine iodide was used as substrate. Butyrylcholinesterase is a commercial product (Sigma). Enzyme activity determination was performed in 0,1 M sodium phosphate buffer pH 8,0 at 25 °C. To 1 ml of the buffer, 90 mcl (7,5 MM) butyrylcholine iodide and 45 mcl (10 MM) 5,5'-ditiobis-2-nitrobenzoic acid (DTNB) were added. After stirring, 1 EU butyrylcholinesterase was added. The enzyme reaction was monitored according to the change of absorption at 412 nm in a period of 2 to10 min. The speed of the enzyme reaction was calculated in M/l.sec, using an absorption coefficient of 14,15 .10^3 1/M.cm (Eyer). Each test was repeated 3 times. The substances under study were dissolved in 50% ethyl alcohol. To trace the inhibiting effect, the compounds under study were added in different concentrations to 1,5 ml of phosphate buffer and 1 EU enzyme. They were incubated for 30 min at 25 °C, then butyrylcholine iodide and DTNB were added and the course of the enzyme reaction was monitored according to the description above. […] After a preliminary screening, such concentrations of the test substances were selected that have an inhibiting effect between 20 and 80%. To determine the inhibition constant (Ki), minimum 3 different concentrations of the test compounds under study were used. The inhibition curves for each selected concentration of the inhibitor were made using the method of double reciprocal values (Lineweaver, Burk), substrate concentration being within 90 - 3300 .10^-6 M/l. IC50 values were determined using the log-probit method. The calculations were made using the matlab6 program. IC50 values were made on the basis of experimental data obtained for different concentrations of the compounds manifesting inhibitory activity.

[3] = biological target: T3, acetylcholinesterase (Homo sapiens, UniProt P22303); assay: biochemical
T3 construct: purchased Sigma
Experimental: Acetylcholine iodide was used as substrate. Acetylcholinesterase is a commercial product (Sigma). […] After stirring, 1 EU acetylcholinesterase was added. […] Each test was repeated 3 times. The test substances was dissolved in 50% ethyl alcohol.

[4] = 0,1 M sodium phosphate buffer pH 8,0, 25 °C, 30 min preincubation, butyrylcholine iodide substrate, read-out: IC50
[5] = 0,1 M sodium phosphate buffer pH 8,0, 25 °C, 30 min preincubation, acetylcholine iodide substrate, read-out: IC50

T2 sequence (P06276 29-602): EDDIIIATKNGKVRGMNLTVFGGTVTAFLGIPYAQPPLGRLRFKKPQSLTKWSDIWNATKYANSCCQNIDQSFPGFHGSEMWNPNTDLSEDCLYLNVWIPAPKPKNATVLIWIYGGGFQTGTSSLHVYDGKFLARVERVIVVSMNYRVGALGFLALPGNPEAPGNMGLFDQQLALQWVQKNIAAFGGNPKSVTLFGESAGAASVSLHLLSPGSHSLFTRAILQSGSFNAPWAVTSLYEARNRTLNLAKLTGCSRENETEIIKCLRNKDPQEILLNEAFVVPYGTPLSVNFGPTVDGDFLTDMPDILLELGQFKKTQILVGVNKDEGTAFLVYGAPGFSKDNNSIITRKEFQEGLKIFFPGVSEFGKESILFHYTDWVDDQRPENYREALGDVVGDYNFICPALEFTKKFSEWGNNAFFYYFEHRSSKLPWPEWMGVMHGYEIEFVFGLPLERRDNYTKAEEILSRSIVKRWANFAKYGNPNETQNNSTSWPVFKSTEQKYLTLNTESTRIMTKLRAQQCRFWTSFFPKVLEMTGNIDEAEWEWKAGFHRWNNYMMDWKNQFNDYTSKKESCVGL
T3 sequence (P22303 32-614, species assumed): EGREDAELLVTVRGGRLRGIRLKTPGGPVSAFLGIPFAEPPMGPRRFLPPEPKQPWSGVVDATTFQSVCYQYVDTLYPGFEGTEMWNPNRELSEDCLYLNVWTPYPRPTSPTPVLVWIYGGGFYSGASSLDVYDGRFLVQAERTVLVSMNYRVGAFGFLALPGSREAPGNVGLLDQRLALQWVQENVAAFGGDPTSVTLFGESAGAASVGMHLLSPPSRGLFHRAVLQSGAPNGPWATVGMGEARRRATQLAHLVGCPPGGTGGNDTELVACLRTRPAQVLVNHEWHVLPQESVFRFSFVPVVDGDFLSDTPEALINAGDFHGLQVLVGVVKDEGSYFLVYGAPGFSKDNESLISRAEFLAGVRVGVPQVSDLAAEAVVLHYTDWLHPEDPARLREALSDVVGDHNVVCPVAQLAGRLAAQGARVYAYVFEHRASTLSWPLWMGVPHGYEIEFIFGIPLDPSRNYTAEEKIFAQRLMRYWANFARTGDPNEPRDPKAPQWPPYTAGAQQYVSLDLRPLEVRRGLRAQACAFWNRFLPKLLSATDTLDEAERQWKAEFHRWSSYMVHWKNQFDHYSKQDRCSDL

CC(Nc1ccc(Cl)c(Cl)c1)C(=O)N[C@@H](Cc1ccccc1)C(=O)O (mixture of isomers) [AF, N-(3,4-dichlorophenyl)-D,L-alanyl-L-phenylalanine]
γ-Secretase effect [1]: comparable with the effect of DAPT

COc1ccc2c3c1O[C@H]1C[C@@H](O)C=C[C@@]31CCN(C(=O)[C@H](Cc1ccccc1)NC(=O)C(C)Nc1ccc(Cl)c(Cl)c1)C2 (stereo partly drawn) [Compound 5, 11-N-demethyl-11-N-N-[N-(3,4-dichlorophenyl)-D,L-alanyl]-L-phenylalanyl-galanthamine]
IC50 [2]: 0.447 µM | IC50 [3]: 12.5 µM

COc1ccc2c3c1OC1CC(OC(=O)CNC(=O)C(CC(C)C)NC(=O)C(C)Nc4ccc(Cl)c(Cl)c4)C=CC31CCN(C)C2 [Compound 3, 6-O-N-[N-(3,4-dichlorophenyl)-D,L-alanyl]-L-leucil-glycil-galanthamine]
quantity of amyloid β [1]: decreased significantly | γ-Secretase effect [1]: comparable with the effect of DAPT | IC50 [2, 4]: 0.612 µM | IC50 [3, 5]: 3.35 µM

COc1ccc2c3c1O[C@H]1C[C@@H](OC(=O)CNC(=O)C(C)Nc4ccc(Cl)c(Cl)c4)C=C[C@@]31CCN(C)C2 (stereo partly drawn) [Compound 1, 6-O-N-[N-(3,4-dichlorophenyl)-D,L-alanyl]-glycil-galanthamine]
quantity of amyloid β [1]: decreased significantly | γ-Secretase effect [1]: no inhibitory effect | IC50 [2]: 23.7 µM | IC50 [3]: 3.98 µM

C[C@H](NC(=O)Cc1cc(F)cc(F)c1)C(=O)N[C@H](C(=O)OC(C)(C)C)c1ccccc1 [DAPT, N-[N-(3,5-difluorophenylacetyl)-L-alanyl]-S-phenylglycin tertiary butyl ester, reference compound]
concentrations at which the quantity of β amyloid is decreased by inhibiting γ-secretase activity ([1]; 6 hours incubation, serum-free medium, figure 1): higher than 160 nM

CC(C)C[C@H](NC(=O)C(C)Nc1ccc(Cl)c(Cl)c1)C(=O)O (mixture of isomers) [AL, N-(3,4-dichlorophenyl)-D,L-alanyl-L-leucine]
concentrations at which the substances have γ-secretase activity ([1]; 6 hours incubation): higher than 0,02 µM | decrease of β-amyloid quantity in the cell medium ([1]; 6 hours incubation): significant decrease

COc1ccc2c3c1OC1CC(O)C=CC31CCN(C(=O)C(NC(=O)C(C)Nc1ccc(Cl)c(Cl)c1)C(C)C)C2 [Compound 6, 11-N-demethyl-11-N-N-[N-(3,4-dichlorophenyl)-D,L-alanyl]-L-valyl-galanthamine]
IC50 [2, 4]: 0.603 µM | IC50 [3, 5]: 31.2 µM

COc1ccc2c3c1OC1CC(OC(=O)CNC(=O)C(Cc4ccccc4)NC(=O)C(C)Nc4ccc(Cl)c(Cl)c4)C=CC31CCN(C)C2 [Compound 2, 6-O-N-[N-(3,4-dichlorophenyl)-D,L-alanyl]-L-phenylalanyl-glycil galanthamine]
IC50 [2, 4]: 10 µM | IC50 [3, 5]: 3.76 µM

COc1ccc2c3c1OC1CC(OC(=O)CNC(=O)C(NC(=O)C(C)Nc4ccc(Cl)c(Cl)c4)C(C)C)C=CC31CCN(C)C2 [Compound 4, 6-O-N-[N-(3,4-dichlorophenyl)-D,L-alanyl]-L-valyl-glycil-galanthamine]
concentrations at which the substances have γ-secretase activity ([1]; 6 hours incubation): higher than 0,02 µM | decrease of β-amyloid quantity in the cell medium ([1]; 6 hours incubation): significant decrease | IC50 [2, 4]: 0.335 µM | IC50 [3, 5]: 8.33 µM
